Literature values, collected in patent US20100112053A1, “GASTRIC RETENTION-TYPE SUSTAINED-RELEASE LEVODOPA PREPARATION” (Kissei Pharmaceutical Co., Ltd., priority 2007, published 2010).
Where two headings read alike, the source gives them in different places.

[1] = under a weakly acidic to basic condition

| SMILES | Solubility [1] | Solubility (under an acidic condition) |
| --- | --- | --- |
| C[C@@](Cc1ccc(O)c(O)c1)(NN)C(=O)O [carbidopa] | low | high |
| N[C@@H](Cc1ccc(O)c(O)c1)C(=O)O [levodopa] | low | high |
